According to patent publication US8076487B2, “Pyridone derivative and herbicide” (Kumiai Chemical Industry Co., Ltd., priority 2006, dated 2011):

Tests used:
Format in all cases: in vivo
[1] = test system: heartshape false pickerelweed (Monochoria vaginalis (Burm.f.) C.Presl); test: Test Example 1: herbicidal effect by soil application to paddy field; settings: for herbicidal effect, Monochoria vaginalis (Burm. f.) C. Presl: paddy field soil application, active ingredient 1,000 g per 1 hectare, wettable powder added dropwise to water surface the day after sowing, examined on the 21st day after application
Summary of the method: (§1)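 Under greenhouse conditions, seeds sown on puddled paddy soil in 100 cm2 pots under 3 cm of standing water received the test compound; injury was assessed with a standard scoring scheme three weeks (day 21) after treatment.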

[2] = test system: Japanese bulrush (Scirpus juncoides Roxb.); test: as above; settings: for herbicidal effect, Scirpus juncoides Roxb.: paddy field soil application, active ingredient 1,000 g per 1 hectare, wettable powder added dropwise to water surface the day after sowing, examined on the 21st day after application
Summary of the method: as §1

[3] = test system: early watergrass (Echinochloa oryzicola Vasing); test: as above; settings: for herbicidal effect, Echinochloa oryzicola Vasing: paddy field soil application, active ingredient 1,000 g per 1 hectare, wettable powder added dropwise to water surface the day after sowing, examined on the 21st day after application
Summary of the method: as §1

[4] = test system: green foxtail (Setaria viridis (L.) P. Beauv.); test: Test Example 2: herbicidal effect by soil application to upland field; settings: soil surface spray, upland field soil, 1,000 g active ingredient per hectare, 21st day after application
Experimental: (§2) [table] Test Example 2 Test on Herbicidal Effect by Soil Application to Upland field In a 80 cm2 plastic pot, field soil was filled. Seeds of barnyardgrass (Echinochloa crus-galli (L.) P. Beauv. var. crus-galli), green foxtail (Setaria viridis (L.) P. Beauv.), velvetleaf (Abutilon theophrasti medicus), and slender amaranth (Amaranthus viridis L.) were sown and covered with soils. The wettable powder prepared according to Formulation Example 1 was diluted in water and a 1,000 liter equivalent amount per 1 hectare so that the active ingredient becomes 1,000 g per 1 hectare was uniformly sprayed on a soil surface using a small sprayer. Then, on the 21st day after the application to the plants grew in a greenhouse, the herbicidal effect was examined in accordance with a standard shown in Table 34.

[5] = test system: velvetleaf (Abutilon theophrasti medicus); test: as above; settings: soil surface spray, upland field soil, 1,000 g active ingredient per hectare, 21st day after application
Experimental: as §2

[6] = test system: barnyardgrass (Echinochloa crus-galli (L.) P. Beauv. var. crus-galli); test: as above; settings: soil surface spray, upland field soil, 1,000 g active ingredient per hectare, 21st day after application
Experimental: as §2

[7] = test system: slender amaranth (Amaranthus viridis L.); test: as above; settings: soil surface spray, upland field soil, 1,000 g active ingredient per hectare, 21st day after application
Experimental: as §2

[8] = soil application to paddy field, rated by standard of Table 34

SMILES | herbicidal effect (index), Monochoria vaginalis (Burm.f.) C.Presl [1, 8] | herbicidal effect (index), Scirpus juncoides Roxb. [2, 8] | herbicidal effect (index), Echinochloa oryzicola Vasing [3, 8] | herbicidal effect (index), Green Foxtail [4] | herbicidal effect (index), Velvetleaf [5] | herbicidal effect (index), Barnyardgrass [6] | herbicidal effect (index), Slender Amaranth [7] | herbicidal effect, Monochoria vaginalis (Burm. f.) C. Presl [1] | herbicidal effect, Scirpus juncoides Roxb. [2] | herbicidal effect, Echinochloa oryzicola Vasing [3]
CCCn1c(C(F)(F)F)ccc(C(=O)C(C#N)=C(O)C2CC2)c1=O [V-21] | 5 (90% or more of herbicidal effect and crop phytotoxicity) | 5 (90% or more of herbicidal effect and crop phytotoxicity) | 5 (90% or more of herbicidal effect and crop phytotoxicity) | 5 (90% or more of herbicidal effect and crop phytotoxicity) | 5 (90% or more of herbicidal effect and crop phytotoxicity) | 5 (90% or more of herbicidal effect and crop phytotoxicity) | 5 (90% or more of herbicidal effect and crop phytotoxicity) | – | – | –
CCCS(=O)(=O)Oc1c(C(=O)c2ccc(C(F)(F)F)n(-c3ccccc3)c2=O)c(C)nn1C [IV-237] | – | – | – | 4 (70 to less than 90% of herbicidal effect and crop phytotoxicity) | 4 (70 to less than 90% of herbicidal effect and crop phytotoxicity) | 4 (70 to less than 90% of herbicidal effect and crop phytotoxicity) | 5 (90% or more of herbicidal effect and crop phytotoxicity) | 5 (90% or more of herbicidal effect and crop phytotoxicity) | 5 (90% or more of herbicidal effect and crop phytotoxicity) | 5 (90% or more of herbicidal effect and crop phytotoxicity)
Cc1ccc(C(=O)C2=C(O)CCCC2=O)c(=O)n1-c1ccc(Cl)cc1 [I-233] | – | – | – | 3 (50 to less than 70% of herbicidal effect and crop phytotoxicity) | 5 (90% or more of herbicidal effect and crop phytotoxicity) | 4 (70 to less than 90% of herbicidal effect and crop phytotoxicity) | 5 (90% or more of herbicidal effect and crop phytotoxicity) | 5 (90% or more of herbicidal effect and crop phytotoxicity) | 5 (90% or more of herbicidal effect and crop phytotoxicity) | 5 (90% or more of herbicidal effect and crop phytotoxicity)
COC1=C(C(=O)c2ccc(C(F)(F)F)n(C)c2=O)C(=O)CCC1 [II-22] | – | – | – | 4 (70 to less than 90% of herbicidal effect and crop phytotoxicity) | 5 (90% or more of herbicidal effect and crop phytotoxicity) | 4 (70 to less than 90% of herbicidal effect and crop phytotoxicity) | 5 (90% or more of herbicidal effect and crop phytotoxicity) | 5 (90% or more of herbicidal effect and crop phytotoxicity) | 5 (90% or more of herbicidal effect and crop phytotoxicity) | 5 (90% or more of herbicidal effect and crop phytotoxicity)
CCCS(=O)(=O)Oc1c(C(=O)c2ccc(C(F)(F)F)n(-c3ccc(F)c(F)c3)c2=O)c(C)nn1C [IV-88] | – | – | – | 5 (90% or more of herbicidal effect and crop phytotoxicity) | 5 (90% or more of herbicidal effect and crop phytotoxicity) | 5 (90% or more of herbicidal effect and crop phytotoxicity) | 5 (90% or more of herbicidal effect and crop phytotoxicity) | 5 (90% or more of herbicidal effect and crop phytotoxicity) | 4 (70 to less than 90% of herbicidal effect and crop phytotoxicity) | 5 (90% or more of herbicidal effect and crop phytotoxicity)
C#CCOc1c(C(=O)c2ccc(C(F)(F)F)n(C)c2=O)cnn1C [IV-189] | – | – | – | 4 (70 to less than 90% of herbicidal effect and crop phytotoxicity) | 4 (70 to less than 90% of herbicidal effect and crop phytotoxicity) | 5 (90% or more of herbicidal effect and crop phytotoxicity) | 5 (90% or more of herbicidal effect and crop phytotoxicity) | 5 (90% or more of herbicidal effect and crop phytotoxicity) | 5 (90% or more of herbicidal effect and crop phytotoxicity) | 5 (90% or more of herbicidal effect and crop phytotoxicity)
O=C1CCCC(O)=C1C(=O)c1ccc(C(F)(F)F)n(NCCCCl)c1=O [I-167] | – | – | – | 5 (90% or more of herbicidal effect and crop phytotoxicity) | 5 (90% or more of herbicidal effect and crop phytotoxicity) | 5 (90% or more of herbicidal effect and crop phytotoxicity) | 5 (90% or more of herbicidal effect and crop phytotoxicity) | 5 (90% or more of herbicidal effect and crop phytotoxicity) | 5 (90% or more of herbicidal effect and crop phytotoxicity) | 5 (90% or more of herbicidal effect and crop phytotoxicity)
CCCCCNn1c(C(F)(F)F)ccc(C(=O)C2=C(O)CCCC2=O)c1=O [I-165] | – | – | – | 3 (50 to less than 70% of herbicidal effect and crop phytotoxicity) | 5 (90% or more of herbicidal effect and crop phytotoxicity) | 5 (90% or more of herbicidal effect and crop phytotoxicity) | 5 (90% or more of herbicidal effect and crop phytotoxicity) | 5 (90% or more of herbicidal effect and crop phytotoxicity) | 5 (90% or more of herbicidal effect and crop phytotoxicity) | 5 (90% or more of herbicidal effect and crop phytotoxicity)
CCn1c(C(F)(F)Cl)ccc(C(=O)C2=C(O)CCCC2=O)c1=O [I-226] | – | – | – | 3 (50 to less than 70% of herbicidal effect and crop phytotoxicity) | 5 (90% or more of herbicidal effect and crop phytotoxicity) | 4 (70 to less than 90% of herbicidal effect and crop phytotoxicity) | 5 (90% or more of herbicidal effect and crop phytotoxicity) | 5 (90% or more of herbicidal effect and crop phytotoxicity) | 5 (90% or more of herbicidal effect and crop phytotoxicity) | 5 (90% or more of herbicidal effect and crop phytotoxicity)
CCCS(=O)(=O)Oc1c(C(=O)c2ccc(C(F)(F)F)n(-c3cc(F)cc(F)c3)c2=O)c(C)nn1C [IV-82] | – | – | – | 4 (70 to less than 90% of herbicidal effect and crop phytotoxicity) | 5 (90% or more of herbicidal effect and crop phytotoxicity) | 5 (90% or more of herbicidal effect and crop phytotoxicity) | 4 (70 to less than 90% of herbicidal effect and crop phytotoxicity) | 5 (90% or more of herbicidal effect and crop phytotoxicity) | 3 (50 to less than 70% of herbicidal effect and crop phytotoxicity) | 5 (90% or more of herbicidal effect and crop phytotoxicity)
